Experimental data as given in ChEMBL document CHEMBL4308859, “Discovery of Novel Central Nervous System Penetrant Metabotropic Glutamate Receptor Subtype 2 (mGlu2) Negative Allosteric Modulators (NAMs) Based on Functionalized Pyrazolo[1,5- a]pyrimidine-5-carboxamide and Thieno[3,2- b]pyridine-5-carboxamide Cores” (J Med Chem, 2018).

Legend:
[1] = biological target: Metabotropic glutamate receptor 2 (Rattus norvegicus, UniProt P31421); experiment: (§1) Negative allosteric modulation of rat mGlu2R expressed in HEK293 cells co-expressing Galpha15 assessed as decrease in glutamate-induced calcium mobilization preincubated for 2.3 mins followed by glutamate addition and measured after 1.7 mins by Fluo-4-AM dye based fluorescence assay; type: functional, cell-based
Metabotropic glutamate receptor 2 (Rattus norvegicus, UniProt P31421), sequence (P31421 whole entry): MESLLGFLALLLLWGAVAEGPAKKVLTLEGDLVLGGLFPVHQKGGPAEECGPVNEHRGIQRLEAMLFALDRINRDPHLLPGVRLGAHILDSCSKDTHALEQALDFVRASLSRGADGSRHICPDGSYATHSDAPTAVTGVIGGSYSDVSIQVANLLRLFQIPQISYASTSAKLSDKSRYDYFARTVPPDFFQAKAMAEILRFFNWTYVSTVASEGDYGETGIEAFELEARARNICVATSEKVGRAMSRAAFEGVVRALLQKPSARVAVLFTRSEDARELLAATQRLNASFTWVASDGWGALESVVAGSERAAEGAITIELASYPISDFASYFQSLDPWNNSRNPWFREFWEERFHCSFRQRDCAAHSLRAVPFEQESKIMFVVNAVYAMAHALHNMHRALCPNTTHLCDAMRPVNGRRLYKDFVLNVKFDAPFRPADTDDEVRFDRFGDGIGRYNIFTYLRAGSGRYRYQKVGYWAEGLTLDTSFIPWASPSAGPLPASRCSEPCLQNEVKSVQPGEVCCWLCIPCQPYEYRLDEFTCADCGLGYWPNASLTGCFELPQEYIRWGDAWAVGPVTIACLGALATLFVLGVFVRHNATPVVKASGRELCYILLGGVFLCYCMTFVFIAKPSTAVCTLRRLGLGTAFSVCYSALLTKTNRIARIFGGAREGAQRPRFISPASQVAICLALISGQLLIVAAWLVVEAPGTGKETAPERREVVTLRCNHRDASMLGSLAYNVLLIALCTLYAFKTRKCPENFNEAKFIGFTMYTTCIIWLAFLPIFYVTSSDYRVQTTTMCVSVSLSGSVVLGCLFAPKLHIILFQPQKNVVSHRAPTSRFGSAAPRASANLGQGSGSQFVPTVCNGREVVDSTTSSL

[2] = biological target: Metabotropic glutamate receptor 2 (Rattus norvegicus) (UniProt P31421); experiment: as §1, with “mobilization at 30 uM” for “mobilization”, “assay relative to control” for “assay”; type: functional, cell-based
Metabotropic glutamate receptor 2 (Rattus norvegicus), sequence (P31421 19-872 limits assumed): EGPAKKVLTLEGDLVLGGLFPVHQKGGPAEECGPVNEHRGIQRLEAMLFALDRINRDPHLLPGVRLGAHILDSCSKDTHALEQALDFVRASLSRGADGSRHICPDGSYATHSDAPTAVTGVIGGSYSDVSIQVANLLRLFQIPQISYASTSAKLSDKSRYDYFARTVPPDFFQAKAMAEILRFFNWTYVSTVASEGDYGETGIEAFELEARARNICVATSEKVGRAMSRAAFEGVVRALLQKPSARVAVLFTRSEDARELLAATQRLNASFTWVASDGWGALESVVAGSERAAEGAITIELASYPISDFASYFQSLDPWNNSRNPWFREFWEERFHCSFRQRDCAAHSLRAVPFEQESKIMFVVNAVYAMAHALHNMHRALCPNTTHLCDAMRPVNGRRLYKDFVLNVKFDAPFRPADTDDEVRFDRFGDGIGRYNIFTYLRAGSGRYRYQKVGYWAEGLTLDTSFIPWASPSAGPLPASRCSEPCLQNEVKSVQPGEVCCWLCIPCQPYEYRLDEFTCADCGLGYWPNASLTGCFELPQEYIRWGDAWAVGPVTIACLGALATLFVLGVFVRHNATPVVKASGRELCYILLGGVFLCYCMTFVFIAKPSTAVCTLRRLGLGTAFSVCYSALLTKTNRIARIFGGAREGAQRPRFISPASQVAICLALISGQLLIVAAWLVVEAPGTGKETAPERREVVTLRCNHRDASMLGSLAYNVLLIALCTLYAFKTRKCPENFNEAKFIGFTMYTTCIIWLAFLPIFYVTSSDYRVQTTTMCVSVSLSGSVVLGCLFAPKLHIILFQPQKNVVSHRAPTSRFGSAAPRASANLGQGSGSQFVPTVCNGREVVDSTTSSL

[3] = Fraction unbound in rat plasma after 4 hrs by equilibrium dialysis method; type: ADME, cell-free
[4] = Fraction unbound in human plasma after 4 hrs by equilibrium dialysis method; type: ADME, cell-free
[5] = Fraction unbound in rat brain; type: ADME, tissue-based
[6] = Brain to plasma partition coefficient, Kp of the compound in Sprague-Dawley rat at 0.2 mg/kg, iv administered as cassette dose by LC-MS/MS analysis; type: ADME, organism-based; conditions: brain and plasma
[7] = Unbound brain to plasma ratio in Sprague-Dawley rat at 0.2 mg/kg, iv administered as cassette dose by LC-MS/MS analysis; type: ADME, organism-based; conditions: brain and plasma, read-out: K(p,uu,brain)
[8] = Plasma clearance in Sprague-Dawley rat at 0.2 mg/kg, iv administered as cassette dose by LC-MS/MS analysis; type: ADME, organism-based
[9] = Half life in Sprague-Dawley rat at 0.2 mg/kg, iv administered as cassette dose by LC-MS/MS analysis; type: ADME, organism-based; conditions: Sprague-Dawley, in vivo
[10] = Volume of distribution at steady state in Sprague-Dawley rat at 0.2 mg/kg, iv administered as cassette dose by LC-MS/MS analysis; type: ADME, organism-based; conditions: in vivo, read-out: Vdss
[11] = Plasma clearance in Sprague-Dawley rat at 1 mg/kg, iv by LC-MS/MS analysis; type: ADME, organism-based
[12] = Half life in Sprague-Dawley rat at 1 mg/kg, iv by LC-MS/MS analysis; type: ADME, organism-based; conditions: in vivo
[13] = Volume of distribution at steady state in Sprague-Dawley rat at 1 mg/kg, iv by LC-MS/MS analysis; type: ADME, organism-based; conditions: in vivo, read-out: Vdss
[14] = biological target: Metabotropic glutamate receptor 3 (Rattus norvegicus, UniProt P31422); experiment: Negative allosteric modulation of rat mGlu3R expressed in Trex cells co-expressing Galpha15 assessed as decrease in glutamate-induced calcium mobilization preincubated for 2.3 mins followed by glutamate addition and measured after 2.6 mins by Fluo-4-AM dye based fluorescence assay; type: functional, cell-based
[15] = biological target: T1, Metabotropic glutamate receptor 1 (Homo sapiens, UniProt Q13255); experiment: Negative allosteric modulation of human mGlu1R expressed in Trex293 cells assessed as decrease in glutamate-induced calcium mobilization preincubated for 2.3 mins followed by glutamate addition and measured after 2.6 mins by Fluo-4-AM dye based fluorescence assay; type: functional, cell-based
T1 sequence (Q13255 whole entry): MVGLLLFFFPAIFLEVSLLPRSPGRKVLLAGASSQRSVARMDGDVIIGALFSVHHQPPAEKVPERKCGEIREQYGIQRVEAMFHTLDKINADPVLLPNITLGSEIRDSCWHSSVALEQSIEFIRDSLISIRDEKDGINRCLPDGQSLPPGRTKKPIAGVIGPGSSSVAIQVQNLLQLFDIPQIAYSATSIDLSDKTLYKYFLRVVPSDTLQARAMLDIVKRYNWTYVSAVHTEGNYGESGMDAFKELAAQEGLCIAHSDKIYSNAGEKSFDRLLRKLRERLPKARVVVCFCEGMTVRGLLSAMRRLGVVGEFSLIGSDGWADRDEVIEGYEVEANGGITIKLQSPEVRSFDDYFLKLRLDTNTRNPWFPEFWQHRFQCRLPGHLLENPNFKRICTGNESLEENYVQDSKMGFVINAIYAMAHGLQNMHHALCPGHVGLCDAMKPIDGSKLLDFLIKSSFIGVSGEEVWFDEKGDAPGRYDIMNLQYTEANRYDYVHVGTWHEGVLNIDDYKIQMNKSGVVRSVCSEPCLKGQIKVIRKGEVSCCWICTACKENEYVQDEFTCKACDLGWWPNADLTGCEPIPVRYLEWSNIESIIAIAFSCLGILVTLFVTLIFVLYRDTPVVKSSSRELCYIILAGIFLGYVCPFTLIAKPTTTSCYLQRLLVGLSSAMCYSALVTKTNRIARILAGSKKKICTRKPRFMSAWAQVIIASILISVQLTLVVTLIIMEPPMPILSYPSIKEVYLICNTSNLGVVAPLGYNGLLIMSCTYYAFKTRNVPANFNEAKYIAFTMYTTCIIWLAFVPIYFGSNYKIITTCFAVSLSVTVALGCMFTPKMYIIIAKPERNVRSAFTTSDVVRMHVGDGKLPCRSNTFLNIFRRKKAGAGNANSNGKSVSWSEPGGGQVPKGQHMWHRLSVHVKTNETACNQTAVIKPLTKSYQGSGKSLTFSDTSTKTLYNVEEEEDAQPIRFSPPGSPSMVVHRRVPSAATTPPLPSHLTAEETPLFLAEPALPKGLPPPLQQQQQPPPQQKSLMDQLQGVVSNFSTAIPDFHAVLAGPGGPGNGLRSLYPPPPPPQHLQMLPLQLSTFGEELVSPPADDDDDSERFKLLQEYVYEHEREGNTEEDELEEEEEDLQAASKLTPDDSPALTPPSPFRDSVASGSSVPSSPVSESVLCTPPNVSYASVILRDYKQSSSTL

[16] = biological target: T2, Metabotropic glutamate receptor 5 (Homo sapiens, UniProt P41594); experiment: Negative allosteric modulation of human mGlu5R expressed in Trex293 cells assessed as decrease in glutamate-induced calcium mobilization preincubated for 2.3 mins followed by glutamate addition and measured after 2.6 mins by Fluo-4-AM dye based fluorescence assay; type: functional, cell-based
[17] = biological target: Metabotropic glutamate receptor 4 (Rattus norvegicus, UniProt P31423); experiment: Negative allosteric modulation of rat mGlu4 receptor expressed in HEK cells harboring GIRK assessed as reduction in glutamate-induced thallium flux preincubated for 2.3 mins followed by glutamate addition measured after 2.6 mins by BTC-AM-dye based fluorescence assay; type: cell-based
[18] = biological target: T3, Metabotropic glutamate receptor 6 (Homo sapiens, UniProt O15303); experiment: Negative allosteric modulation of human mGlu6 receptor expressed in HEK cells harboring GIRK assessed as reduction in glutamate-induced thallium flux preincubated for 2.3 mins followed by glutamate addition measured after 2.6 mins by BTC-AM-dye based fluorescence assay; type: cell-based
T3 sequence (O15303 whole entry): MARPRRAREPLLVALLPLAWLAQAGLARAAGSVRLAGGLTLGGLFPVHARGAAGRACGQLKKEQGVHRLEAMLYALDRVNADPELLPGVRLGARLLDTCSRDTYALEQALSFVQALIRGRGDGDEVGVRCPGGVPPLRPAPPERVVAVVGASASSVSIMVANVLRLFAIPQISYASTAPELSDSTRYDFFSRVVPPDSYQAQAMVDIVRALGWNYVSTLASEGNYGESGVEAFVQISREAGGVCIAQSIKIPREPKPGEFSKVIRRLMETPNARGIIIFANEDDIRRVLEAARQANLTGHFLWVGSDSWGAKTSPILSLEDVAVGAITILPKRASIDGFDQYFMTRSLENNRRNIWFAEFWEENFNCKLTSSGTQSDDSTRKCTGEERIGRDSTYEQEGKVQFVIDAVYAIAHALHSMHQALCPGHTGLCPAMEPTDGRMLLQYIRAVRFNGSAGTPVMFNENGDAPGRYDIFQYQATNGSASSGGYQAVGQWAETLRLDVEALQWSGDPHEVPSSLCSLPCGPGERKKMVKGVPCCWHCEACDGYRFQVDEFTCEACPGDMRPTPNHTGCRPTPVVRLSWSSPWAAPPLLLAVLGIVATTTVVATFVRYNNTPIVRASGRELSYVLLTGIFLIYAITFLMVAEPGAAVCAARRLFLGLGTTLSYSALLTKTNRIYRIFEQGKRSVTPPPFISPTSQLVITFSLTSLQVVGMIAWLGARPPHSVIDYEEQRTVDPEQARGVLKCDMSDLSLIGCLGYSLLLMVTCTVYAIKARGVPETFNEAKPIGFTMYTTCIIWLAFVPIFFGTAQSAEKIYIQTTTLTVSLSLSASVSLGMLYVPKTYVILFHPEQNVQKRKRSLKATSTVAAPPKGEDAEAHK

[19] = biological target: Metabotropic glutamate receptor 7 (Rattus norvegicus, UniProt P35400); experiment: Negative allosteric modulation of rat mGlu7 receptor expressed in HEK cells harboring GIRK assessed as reduction in […]-induced thallium flux preincubated for 2.3 mins followed by […] addition measured after 2.6 mins by BTC-AM-dye based fluorescence assay; type: cell-based
[20] = biological target: Metabotropic glutamate receptor 8 (Rattus norvegicus, UniProt P70579); experiment: Negative allosteric modulation of rat mGlu8 receptor expressed in HEK cells harboring GIRK assessed as reduction in glutamate-induced thallium flux preincubated for 2.3 mins followed by glutamate addition measured after 2.6 mins by BTC-AM-dye based fluorescence assay; type: cell-based
[21] = biological target: Metabotropic glutamate receptor 2 (Homo sapiens, UniProt Q14416); experiment: Negative allosteric modulation of mGlu2R (unknown origin)
[22] = biological target: Metabotropic glutamate receptor 3 (Homo sapiens, UniProt Q14832); experiment: Negative allosteric modulation of mGlu3R (unknown origin)
Metabotropic glutamate receptor 3 (Homo sapiens, UniProt Q14832), sequence (Q14832 whole entry): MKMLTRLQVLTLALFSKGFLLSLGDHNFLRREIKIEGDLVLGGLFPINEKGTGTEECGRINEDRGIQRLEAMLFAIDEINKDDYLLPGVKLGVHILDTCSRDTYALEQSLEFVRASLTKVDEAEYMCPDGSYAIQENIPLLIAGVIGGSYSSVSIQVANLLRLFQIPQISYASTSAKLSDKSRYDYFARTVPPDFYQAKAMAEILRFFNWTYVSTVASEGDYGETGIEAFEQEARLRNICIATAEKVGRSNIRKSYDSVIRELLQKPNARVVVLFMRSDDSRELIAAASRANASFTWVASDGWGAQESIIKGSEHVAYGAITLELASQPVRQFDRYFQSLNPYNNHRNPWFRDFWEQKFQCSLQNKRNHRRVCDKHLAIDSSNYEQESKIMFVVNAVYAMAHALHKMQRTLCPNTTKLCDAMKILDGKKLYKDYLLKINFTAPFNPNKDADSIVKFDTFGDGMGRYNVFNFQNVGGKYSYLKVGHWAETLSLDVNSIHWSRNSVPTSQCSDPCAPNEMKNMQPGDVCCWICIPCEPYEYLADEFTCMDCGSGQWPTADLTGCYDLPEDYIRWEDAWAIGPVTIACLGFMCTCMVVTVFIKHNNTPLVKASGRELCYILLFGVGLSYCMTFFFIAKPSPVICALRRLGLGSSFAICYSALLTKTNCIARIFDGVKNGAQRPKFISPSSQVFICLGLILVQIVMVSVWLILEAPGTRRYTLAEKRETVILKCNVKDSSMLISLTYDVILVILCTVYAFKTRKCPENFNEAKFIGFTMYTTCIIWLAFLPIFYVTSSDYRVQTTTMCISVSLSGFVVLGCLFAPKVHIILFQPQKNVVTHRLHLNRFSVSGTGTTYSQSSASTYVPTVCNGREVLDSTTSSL

[23] = Brain to plasma partition coefficient, Kp of the compound in rat; type: ADME; conditions: brain and plasma
[24] = biological target: T1, Metabotropic glutamate receptor 1; experiment: Negative allosteric modulation of mGlu1R (unknown origin)
[25] = biological target: Metabotropic glutamate receptor 4 (Homo sapiens, UniProt Q14833); experiment: Negative allosteric modulation of mGlu4R (unknown origin)
[26] = biological target: T2, Metabotropic glutamate receptor 5; experiment: Negative allosteric modulation of mGlu5R (unknown origin)
[27] = biological target: T3, Metabotropic glutamate receptor 6; experiment: Negative allosteric modulation of mGlu6R (unknown origin)
[28] = biological target: Metabotropic glutamate receptor 7 (Homo sapiens, UniProt Q14831); experiment: Negative allosteric modulation of mGlu7R (unknown origin)
[29] = biological target: Metabotropic glutamate receptor 8 (Homo sapiens, UniProt O00222); experiment: Negative allosteric modulation of mGlu8R (unknown origin)
[30] = Plasma clearance in mouse; type: ADME, organism-based

IC50 [1] [nM]	Emax [2] [%]	Kp [6]	Kp uu [7]	Structure (SMILES)	further results
794	2.4	4.04	0.86	NC(=O)c1cc(-c2ccc(F)cc2)n2nc(COc3ccnc(C(F)(F)F)c3)cc2n1	fraction unbound at 4 h [3]: 0.03; fraction unbound at 4 h [4]: 0.01; fraction unbound [5]: 0.007; clearance [8]: 10 mL/min/kg; half-life [9]: 4.28 h; Vd [10]: 3.31 L/kg; clearance [11]: 16.4 mL/min/kg; half-life [12]: 5.53 h; Vd [13]: 6.59 L/kg; IC50 [14]: > 30000 nM; IC50 [15]: > 30000 nM; IC50 [16]: > 30000 nM; IC50 [17]: > 30000 nM; IC50 [18]: > 30000 nM; IC50 [19]: > 30000 nM; IC50 [20]: > 30000 nM
427	2.7	–	–	COc1ccc(-c2cc(C(N)=O)nc3cc(COc4cnc(C)nc4)sc23)c(F)c1	–
224	19.7	2.5 to 2.7	0.4 to 0.6	NC(=O)c1cc(-c2ccc(F)cc2)n2nc(COc3ccnc(Br)c3)cc2n1	fraction unbound at 4 h [3]: 0.03 to 0.12; fraction unbound at 4 h [4]: 0.03 to 0.12; fraction unbound [5]: 0.003 to 0.009
2000	16.8	–	–	COc1ccc(OCc2cc3nc(C(N)=O)cc(-c4ccc(F)cc4)c3s2)cn1	–
1050	2.6	–	–	NC(=O)c1cc(-c2ccc(F)cc2)n2nc(CCc3ccncc3)cc2n1	–
> 10000	–	–	–	NC(=O)c1cc(-c2ccc(F)cc2)n2nc(COc3ccc(C(F)(F)F)nc3)cc2n1	–
676	26.2	–	–	NC(=O)c1cc(-c2ccc(F)cc2)c2sc(COc3cncnc3)cc2n1	–
288	35.4	2.5 to 2.7	0.4 to 0.6	COc1ccc(-c2cc(C(N)=O)nc3cc(COc4ccnc(C)c4)nn23)c(F)c1	fraction unbound at 4 h [3]: 0.03 to 0.12; fraction unbound at 4 h [4]: 0.03 to 0.12; fraction unbound [5]: 0.003 to 0.009
1740	2.2	–	–	NC(=O)c1cc(-c2ccc(F)cc2)c2sc(CN3CCCCC3)cc2n1	–
6610	4.1	–	–	NC(=O)c1cc(-c2ccc(F)cc2)c2sc(CN3CCCC3)cc2n1	–
> 10000	–	–	–	NC(=O)c1cc(-c2ccc(F)cc2)c2sc(COc3ccc(F)cc3)cc2n1	–
2510	2.6	–	–	COc1ccc(-c2cc(C(N)=O)nc3cc(CN4CCOCC4)sc23)cc1	–
3630	2.4	–	–	NC(=O)c1cc(-c2ccc(F)cc2)c2sc(CN3CCSCC3)cc2n1	–
447	–	–	–	[2H]C([2H])([2H])Oc1ccc(-c2cc(C(N)=O)nc3cc(COc4cnc(C)nc4)sc23)cc1	–
3890	2.9	–	–	NC(=O)c1cc(-c2ccc(F)cc2)c2sc(CN3CCOCC3)cc2n1	–
–	–	–	–	C[C@@H]1CN(Cc2ccc3c(c2)c(=O)c(C(N)=O)cn3-c2ccc(F)cc2)C[C@H](C)O1	IC50 [21]: 207 nM; IC50 [22]: > 30000 nM; Kp [23]: 0.3
316	2.6	3.41	0.49	COc1ccc(-c2cc(C(N)=O)nc3cc(COc4cnc(C)nc4)sc23)cc1	Emax ([2]; tested as the 2H-labelled form): 2.8%; fraction unbound at 4 h [3]: 0.02; fraction unbound at 4 h [4]: 0.01; fraction unbound [5]: 0.003; clearance [8]: 389 mL/min/kg; half-life [9]: 0.238 h; Vd [10]: 6.49 L/kg
1410	2.4	–	–	CN(Cc1cc2nc(C(N)=O)cc(-c3ccc(F)cc3)c2s1)C1COC1	–
148	2.1	2.5 to 2.7	0.4 to 0.6	COc1ccc(-c2cc(C(N)=O)nc3cc(COc4ccnc(C(F)(F)F)c4)nn23)c(F)c1	fraction unbound at 4 h [3]: 0.03 to 0.12; fraction unbound at 4 h [4]: 0.03 to 0.12; fraction unbound [5]: 0.003 to 0.009
–	–	–	–	[11CH3]Oc1ccc(-c2cc(C(N)=O)nc3cc(CN4C(=O)CCC4=O)ccc23)c(F)c1	IC50 [22]: > 30000 nM; Kp [23]: 0.3

IC50 [1] [nM]	Emax [2] [%]	Kp [6]	Kp uu [7]	Structure (SMILES)	further results
676	2.2	7.99	0.2	Cc1ccc(OCc2cc3nc(C(N)=O)cc(-c4ccc(F)cc4)c3s2)cn1	fraction unbound at 4 h [3]: 0.02; fraction unbound at 4 h [4]: 0.05; fraction unbound [5]: 0.003
102	1.5	2.5 to 2.7	0.4 to 0.6	NC(=O)c1cc(-c2ccc(F)cc2F)n2nc(COc3ccnc(C(F)(F)F)c3)cc2n1	fraction unbound at 4 h [3]: 0.03 to 0.12; fraction unbound at 4 h [4]: 0.03 to 0.12; fraction unbound [5]: 0.003 to 0.009
1510	1.9	–	–	Cn1ccc(OCc2cc3nc(C(N)=O)cc(-c4ccc(F)cc4)c3s2)n1	–
741	3.3	> 2	< 0.4	Cc1ccc(OCc2cc3nc(C(N)=O)cc(-c4ccc(F)cc4)c3s2)c(C)n1	–
871	29.3	> 2	< 0.4	NC(=O)c1cc(-c2ccc(F)cc2)c2sc(COc3ccc(Cl)nc3)cc2n1	–
1740	2.9	–	–	NC(=O)c1cc(-c2ccc(F)cc2)n2nc(CCc3cccnc3)cc2n1	–
1050	2.2	–	–	NC(=O)c1cc(-c2ccc(F)cc2)c2sc(CN3CCC(F)(F)CC3)cc2n1	–
347	4.2	2.5 to 2.7	0.4 to 0.6	COc1ccc(-c2cc(C(N)=O)nc3cc(COc4ccc(C(F)(F)F)nc4)nn23)c(F)c1	fraction unbound at 4 h [3]: 0.03 to 0.12; fraction unbound at 4 h [4]: 0.03 to 0.12; fraction unbound [5]: 0.003 to 0.009
1740	2.3	–	–	NC(=O)c1cc(-c2ccc(F)cc2)c2sc(COc3ccnc(C(F)(F)F)c3)cc2n1	–
> 10000	–	–	–	Cc1cc(OCc2cc3nc(C(N)=O)cc(-c4ccc(F)cc4)n3n2)ccn1	–
2570	7.2	–	–	COc1ccc(-c2cc(C(N)=O)nc3cc(COc4ccc(F)nc4)sc23)cc1	–
87	2.3	4.25	0.59	NC(=O)c1cc(-c2ccc(F)cc2)n2nc(CCc3ccnc(C(F)(F)F)c3)cc2n1	fraction unbound at 4 h [3]: 0.04; fraction unbound at 4 h [4]: 0.02; fraction unbound [5]: 0.006
> 10000	–	–	–	NC(=O)c1cc(-c2ccc(F)cc2)c2sc(CN3CCC3)cc2n1	–
589	6.9	–	–	Cc1ncc(OCc2cc3nc(C(N)=O)cc(-c4ccc(F)cc4)c3s2)cn1	–
–	–	–	–	Cn1ccc(COc2cnc(C(N)=O)cc2-c2ccc(F)cc2)n1	IC50 [24]: > 30000 nM; IC50 [22]: > 30000 nM; IC50 [25]: > 30000 nM; IC50 [26]: > 30000 nM; IC50 [27]: > 30000 nM; IC50 [28]: > 30000 nM; IC50 [29]: > 30000 nM; clearance [30]: 118 mL/min/kg; Kp [23]: 1.9
1410	2.3	–	–	COc1ccc(-c2cc(C(N)=O)nc3cc(CN4CCOCC4)sc23)c(F)c1	–
891	13.2	> 2	< 0.4	NC(=O)c1cc(-c2ccc(F)cc2)c2sc(COc3ccc(F)nc3)cc2n1	–
759	3.2	> 2	< 0.4	Cc1ncccc1OCc1cc2nc(C(N)=O)cc(-c3ccc(F)cc3)c2s1	–
> 10000	–	–	–	NC(=O)c1cc(-c2ccc(F)cc2)c2sc(COc3ccc(C(F)(F)F)nc3)cc2n1	–
